Data from paper PMC2997884 (Molecular pharmaceutics, 2010).
Read-outs that look alike come from different tables or passages of the source. Where a SMILES comes first, the peptide text is derived from it. [ ]: non-standard residue; d: D form. The star is where a group is joined. ξ: configuration not given here. pNA = O=[N+]([O-])c1ccc(N*)cc1; ξP = O=C(O)C1CCCN1

What was measured:
[1] = tested on: chymotrypsin; conditions: N-acetyltryptophanyl-X substrates of chymotrypsin; ref Bender and Kezdy[14]; cited from earlier work
[2] = target: T1, hVACVase (Homo sapiens, UniProt Q86WA6); conditions: cited from earlier work; for specific activity: hVACVase substrate; for Km / Vmax: hVACVase
T1 sequence (Q86WA6 38-291): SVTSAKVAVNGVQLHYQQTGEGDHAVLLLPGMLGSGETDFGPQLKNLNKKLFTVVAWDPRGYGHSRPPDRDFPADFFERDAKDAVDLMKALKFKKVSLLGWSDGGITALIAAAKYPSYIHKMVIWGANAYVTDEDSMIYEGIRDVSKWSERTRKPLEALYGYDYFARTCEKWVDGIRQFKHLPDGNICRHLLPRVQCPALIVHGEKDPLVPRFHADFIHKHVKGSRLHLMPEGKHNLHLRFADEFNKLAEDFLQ

[3] = Hydrolysis in pH 7.4 HEPES buffer; assay type: physicochemical; conditions: for t1/2 (estimated half-life): pH 7.4 HEPES buffer, 37 °C, mean ± SEM, esters n=3, Val-3-APG n=1 (up to 800 h)
[4] = target: T1, hVACVase; conditions: hVACVase-mediated hydrolysis; previously published; ref Sun et al.[12]; cited from earlier work
[5] = target: T1, hVACVase; assay: hVACVase-mediated hydrolysis; conditions: 50 mM HEPES pH 7.4, 37°C, 6×His-tagged hVACVase for Val-3-APG; for kcat: calculated from Vmax/[enzyme]0; for Km / Vmax: mean ± SEM, Phe-OMe n=2, others n=3

SMILES: CC(=O)N[C@@H](Cc1c[nH]c2ccccc12)C(N)=O [-NH2]
- Km [1]: 5000 µM
- kcat [1]: 0.0006 s⁻¹

SMILES: CCOC(=O)[C@H](Cc1c[nH]c2ccccc12)NC(C)=O [-OEt]
- Km [1]: 97 µM
- kcat [1]: 0.448 s⁻¹

SMILES: COC(=O)[C@H](Cc1c[nH]c2ccccc12)NC(C)=O [-OMe]
- Km [1]: 95 µM
- kcat [1]: 0.462 s⁻¹

SMILES: CC(=O)N[C@@H](Cc1c[nH]c2ccccc12)C(=O)Oc1ccc([N+](=O)[O-])cc1 [-OPNP]
- Km [1]: 2 µM
- kcat [1]: 0.508 s⁻¹

SMILES: NCC(=O)N1CCCC1C(=O)Nc1ccc([N+](=O)[O-])cc1 (stereo not drawn) [Gly-Pro-p-NA] (H-Gly-[ξP]-pNA)
- hydrolytic activity of hVACVase toward amides [2]: does not exhibit significant hydrolytic activity

SMILES: CC(C)C[C@H](N)C(=O)Nc1ccc([N+](=O)[O-])cc1 [Leu-p-NA]
- hydrolytic activity of hVACVase toward amides [2]: does not exhibit significant hydrolytic activity

SMILES: NCCCC[C@H](N)C(=O)Nc1ccc([N+](=O)[O-])cc1 [Lys-p-NA]
- hydrolytic activity of hVACVase toward amides [2]: does not exhibit significant hydrolytic activity

SMILES: N=C(N)Nc1cccc(COC(=O)[C@@H](N)Cc2ccccc2)c1 [Phe-3-HPG]
- t1/2 (estimated half-life) [3]: 3.833 ± 0.108 h
- Km [4]: 207 ± 16 µM
- Vmax [4]: 718 ± 16 nmol/min/µg
- kcat [4]: 345 ± 8 s⁻¹

SMILES: Cl.N[C@@H](Cc1ccccc1)C(=O)OCc1ccccc1 [Phe-OBn, L-phenylalanine benzyl ester hydrochloride]
- t1/2 (estimated half-life) [3]: 6.083 ± 0.157 h
- specific activity [2]: 358.3 units/mg
- kcat [5]: 395 ± 26 s⁻¹
- Km [5]: 99 ± 26 µM
- Vmax [5]: 822 ± 54 nmol/min/µg

SMILES: CCOC(=O)[C@@H](N)Cc1ccccc1.Cl [Phe-OEt, L-phenylalanine ethyl ester hydrochloride]
- t1/2 (estimated half-life) [3]: 16.773 ± 0.433 h
- specific activity [2]: 75.3 units/mg
- kcat [5]: 93 ± 4 s⁻¹
- Km [5]: 6700 ± 560 µM
- Vmax [5]: 193 ± 8 nmol/min/µg

SMILES: N[C@@H](Cc1ccccc1)C(=O)Nc1ccc([N+](=O)[O-])cc1 [Phe-p-NA]
- hydrolytic activity of hVACVase toward amides [2]: does not exhibit significant hydrolytic activity

SMILES: O=C(Nc1ccc([N+](=O)[O-])cc1)[C@@H]1CCCN1 [Pro-p-NA]
- hydrolytic activity of hVACVase toward amides [2]: does not exhibit significant hydrolytic activity

SMILES: CC(C)C(N)C(=O)OCc1cccc(NC(=N)N)c1 (stereo not shown) [Val-3-HPG]
- t1/2 (estimated half-life) [3]: 8.115 ± 0.11 h
- Km [4]: 46 ± 5 µM
- Vmax [4]: 321 ± 9 nmol/min/µg
- kcat [4]: 154 ± 4 s⁻¹

SMILES: CC(C)[C@H](N)C(=O)OCc1ccccc1.Cl [Val-OBn, L-valine benzyl ester hydrochloride]
- t1/2 (estimated half-life) [3]: 14.3 ± 0.127 h
- kcat [5]: 60 ± 3 s⁻¹
- Km [5]: 60 ± 15 µM
- Vmax [5]: 125 ± 7 nmol/min/µg

SMILES: CC(C)[C@H](N)C(=O)Nc1ccc([N+](=O)[O-])cc1 [Val-p-NA]
- hydrolytic activity of hVACVase toward amides [2]: does not exhibit significant hydrolytic activity

SMILES: CC(C)(C)OC(=O)[C@@H](N)Cc1ccccc1 [phenylalanine t-butyl ester]
- hVACVase substrate or not [2]: not a substrate

SMILES: CC(C)[C@H](N)C(=O)OCCOCn1cnc2c(=O)[nH]c(N)nc21 [valacyclovir]
- half-life ([3]; HEPES buffer, pH 7.4): 12.37 ± 0.0917 h
- Km [2]: 190 µM
- Km [4]: 68 ± 4 µM
- Vmax [4]: 120 ± 2 nmol/min/µg
- kcat [4]: 58 ± 1 s⁻¹

SMILES: CC(C)[C@H](N)C(=O)OCC(CO)OCn1cnc2c(=O)nc(N)[nH]c21 (stereo partly shown) [valganciclovir]
- Km [2]: 1900 µM

SMILES: CC(C)C(N)C(=O)OC1CC(n2cc(F)c(=O)[nH]c2=O)OC1CO (stereo not shown) [valine 3’-floxuridine ester]
- Vmax [2]: 33 nmol/min/µg

SMILES: CC(C)C(N)C(=O)OCC1OC(n2cc(F)c(=O)[nH]c2=O)CC1O (stereo not shown) [valine 5’-floxuridine]
- Vmax [2]: 148 nmol/min/µg

SMILES: Br.CC(C)[C@H](N)C(=O)OCc1ccc([N+](=O)[O-])cc1 [valine p-nitrobenzyl ester, L-Valine p-nitrobenzyl ester hydrobromide]
- t1/2 (estimated half-life) [3]: 6.872 ± 0.198 h
- kcat [5]: 130 ± 2 s⁻¹
- Km [5]: 14 ± 1 µM
- Vmax [5]: 272 ± 3 nmol/min/µg
